{
  "source": "patent US4788136A",
  "about": "“Diagnostic immunoassay by solid phase separation for digoxin” (priority 1987, dated 1988)",
  "key": {"anti-digoxin antibodies [1]": {"system": "anti-digoxin antibodies", "test": "TDx Abbott Digoxin II assay, antigenicity (cross-reactivity) of cardiac glycoside analogs", "format": "binding", "details": "TDx analyzer, aqueous solutions in TDx dilution buffer, observed assay concentration divided by actual analog concentration times 100", "method": "(§1) The antigencity of cardiac glycoside analogs was first determined using the TDx@ analyzer and the Abbott Digoxin II assay commercially available from Abbott Laboratories, Abbott Park, Il 60064. Analogs were evaluated as aqueous solutions in TDx dilution buffer. Several analogs were also subsequently evaluated using the new digoxin assay described herein (see generally Example IV) using a ouabain triacetate solid phase prepared in accordance with Example IIB. Analogs evaluated were: [drawing 3] wherein R1 =R2 =R3 =Ac, X=O, Y1, Z1 and Y2, Z2 =a bond connecting the two carbon atoms to which they are attached (A); R1 =R2 =R3 =Ac, X=O, Y1 =OH, Z1 =H, Y2 and Z2 =a bond connecting the two carbon atoms to which they are attached (B); R1 =R2 =R3 =Ac, X=O, Y1 =Y2 =OH, Z1 =Z2 =H (C); and R1 =R2 =R3 =H, X=N, Y1 =Y2 =OH, Z1 =Z2 =H (D). Cross-reactivity was defined as the observed assay concentration divided by the actual analog concentration times 100."}, "[2]": {"system": "β-galactosidase-labeled F(ab')2 (anti-digoxin)", "test": "New digoxin assay (ouabain triacetate solid phase), cross-reactivity of analogs", "format": "binding, Rabbit", "details": "new digoxin assay using ouabain triacetate solid phase; observed assay concentration divided by actual analog concentration times 100", "method": "as §1"}, "anti-digoxin antibodies [3]": {"system": "anti-digoxin antibodies", "details": "known compounds for immobilization (background); cited from earlier work"}, "[4]": {"system": "β-galactosidase-labeled F(ab')2", "test": "Non-competitive assay for digoxin in serum with immobilized ouabain triacetate solid phase (standard curve)", "quoted_text": "The general assay format consists of preincubation of excess β-galactosidase-labeled F(ab')2 (Example II A) with sample such that sample is quantitatively and rapidly bound to form an analyte-β-galactosidase-labeled F(ab')2 conjugate. An aliquot of this mixture is transferred to a vessel containing a ouabain triacetate-albumin-trisacryl solid phase prepared in accordance with procedure of Example II B and having a characteristic density to be easily suspended in solution yet sufficiently dense to rapidly sediment by gravity. The solid phase material rapidly captures the excess unconjugated β-galactosidase-labeled F(ab')2 and sediments. Following the capture reaction and sedimentation an aliguot containing analyte-β-galactosidase-labeled F(ab')2 is transfered to a cuvette for quantitation using a fluorogenic substrate.\nSerum solutions containing 0, 0.5, 1.0, 2.0, 3.0 and 5.0 nanograms per milliliter of digoxin were each tested following the same assay protocol described below. A control was also run with zero digoxin and no solid phase material. Fifty microliters of serum sample was mixed with 25 microliters of the β-galactosidase-labeled F(ab')2 (Example II A) and 325 microliters of TDx dilution buffer. The reaction mixture was incubated at 34-35 degrees Celsius for 6 minutes and then a 60 microliter aliquot and 55 microliters of TDx dilution buffer was added to 10 mg of solid phase material (Example II B). The mixture was incubated for 10 minutes with mixing. 400 ul of TDx dilution buffer was then added to the mixture.\nThe mixture was allowed to rest briefly whereupon it separated into a liquid and solid phase. The β-galactosidase activity of the supernatant was measured by quantitating the production of fluorescein. The measurement was made using 10 micromolar di-(β-D-galactosyl)-fluorescein as substrate in TDx dilution buffer containing 1 mM MgCl2."}},
  "data": [
    {"molecule": "CC1OC(OC2CC(O)C3(CO)C4C(O)CC5(C)C(C6=CC(=O)NC6)CCC5(O)C4CCC3(O)C2)C(O)C(O)C1O", "note": "(centres unmarked) [Ouabain Lactam (D)]", "values": [
      {"measurement": "CROSS-REACTIVITY (%) DIGOXIN II", "setting": "anti-digoxin antibodies [1]", "value": "9.1 × 10^-4%"}
    ]},
    {"molecule": "CC(=O)OCC12C(OC(C)=O)CC(OC3OC(C)C(O)C(O)C3O)CC1(O)CCC1C2C(OC(C)=O)CC2(C)C(C3=CC(=O)OC3)CCC12O", "note": "(centres unmarked) [Ouabain Triacetate (C)]", "values": [
      {"measurement": "CROSS-REACTIVITY (%) DIGOXIN II", "setting": "anti-digoxin antibodies [1]", "value": "3.7 × 10^-4%"},
      {"measurement": "CROSS-REACTIVITY (%) NEW ASSAY", "setting": "[2]", "value": "2.2 × 10^-4%"}
    ]},
    {"molecule": "CC(=O)OCC12C(=CCC3C4=CCC(C5=CC(=O)OC5)C4(C)CC(OC(C)=O)C31)CC(OC1OC(C)C(O)C(O)C1O)CC2OC(C)=O", "note": "(centres unmarked) [Ouabain Triacetate (A)]", "values": [
      {"measurement": "CROSS-REACTIVITY (%) DIGOXIN II", "setting": "anti-digoxin antibodies [1]", "value": "1.6 × 10^-3%"}
    ]},
    {"molecule": "CC1OC(OC2C(O)CC(OC3C(O)CC(OC4CCC5(C)C(CCC6C5CC(O)C5(C)C(C7=CC(=O)NC7)CCC65O)C4)OC3C)OC2C)CC(O)C1O", "note": "(centres unmarked) [Digoxin Lactam]", "values": [
      {"measurement": "CROSS-REACTIVITY (%) DIGOXIN II", "setting": "anti-digoxin antibodies [1]", "value": 0.41, "unit": "%"}
    ]},
    {"molecule": "C[C@@H]1O[C@@H](O[C@H]2C[C@@H](O)[C@]3(CO)[C@H]4[C@H](O)C[C@]5(C)[C@@H](C6=CC(=O)OC6)CC[C@]5(O)[C@@H]4CC[C@]3(O)C2)[C@H](O)[C@H](O)[C@H]1O", "note": "[Ouabain]", "values": [
      {"measurement": "affinity for labeled anti digoxin antibody, in words", "setting": "anti-digoxin antibodies [3]", "value": "relatively high affinity"},
      {"measurement": "CROSS-REACTIVITY (%) DIGOXIN II", "setting": "anti-digoxin antibodies [1]", "value": "2.0 × 10^-2%"},
      {"measurement": "CROSS-REACTIVITY (%) NEW ASSAY", "setting": "[2]", "value": "1.8 × 10^-3%"}
    ]},
    {"molecule": "C[C@H]1O[C@@H](O[C@H]2[C@@H](O)C[C@H](O[C@H]3[C@@H](O)C[C@H](O[C@H]4CC[C@@]5(C)[C@H](CC[C@@H]6[C@@H]5C[C@@H](O)[C@]5(C)[C@@H](C7=CC(=O)OC7)CC[C@]65O)C4)O[C@@H]3C)O[C@@H]2C)C[C@H](O)[C@@H]1O", "note": "[Digoxin]", "values": [
      {"measurement": "affinity for labeled anti digoxin antibody, in words", "setting": "anti-digoxin antibodies [3]", "value": "relatively high affinity"},
      {"measurement": "CROSS-REACTIVITY (%) DIGOXIN II", "setting": "anti-digoxin antibodies [1]", "value": 100, "unit": "%"},
      {"measurement": "CROSS-REACTIVITY (%) NEW ASSAY", "setting": "[2]", "value": 100, "unit": "%"},
      {"measurement": "Fluorescence Measured Rate", "setting": "[4]; digoxin 0.5 ng/mL in serum", "value": 160},
      {"measurement": "Fluorescence Measured Rate", "setting": "[4]; digoxin 1.0 ng/mL in serum", "value": 220},
      {"measurement": "Fluorescence Measured Rate", "setting": "[4]; digoxin 2.0 ng/mL in serum", "value": 448},
      {"measurement": "Fluorescence Measured Rate", "setting": "[4]; digoxin 3.0 ng/mL in serum", "value": 745},
      {"measurement": "Fluorescence Measured Rate", "setting": "[4]; digoxin 5.0 ng/mL in serum", "value": 1231}
    ]},
    {"molecule": "CC(=O)OCC12C(OC(C)=O)CC(OC3OC(C)C(O)C(O)C3O)CC1(O)CCC1C3=CCC(C4=CC(=O)OC4)C3(C)CC(OC(C)=O)C12", "note": "(centres unmarked) [Ouabain Triacetate (B)]", "values": [
      {"measurement": "CROSS-REACTIVITY (%) DIGOXIN II", "setting": "anti-digoxin antibodies [1]", "value": "1.5 × 10^-3%"}
    ]}
  ]
}
